Source: US20230322722A1, “MODULATORS OF MYC FAMILY PROTO-ONCOGENE PROTEIN” (Nalo Therapeutics, priority 2020, published 2023)

Key:
[1] = biological target: T1, MycN protein (n-myc) (Homo sapiens, UniProt P04198); experiment: Degradation of MycN protein, 24 h treatment, JESS Western, SK-N-BE(2) cells (Example 161); assay type: cell-based; conditions: SKNBE2 cells
T1 construct: either 2×10^6 of L-363 (human leukemia cell line) or SKNBE2 (neuroblastoma cell line) cells; endogenous in cells; host or cells: SKNBE2 / SK-N-BE(2) neuroblastoma cells
T1 sequence (P04198 1-464): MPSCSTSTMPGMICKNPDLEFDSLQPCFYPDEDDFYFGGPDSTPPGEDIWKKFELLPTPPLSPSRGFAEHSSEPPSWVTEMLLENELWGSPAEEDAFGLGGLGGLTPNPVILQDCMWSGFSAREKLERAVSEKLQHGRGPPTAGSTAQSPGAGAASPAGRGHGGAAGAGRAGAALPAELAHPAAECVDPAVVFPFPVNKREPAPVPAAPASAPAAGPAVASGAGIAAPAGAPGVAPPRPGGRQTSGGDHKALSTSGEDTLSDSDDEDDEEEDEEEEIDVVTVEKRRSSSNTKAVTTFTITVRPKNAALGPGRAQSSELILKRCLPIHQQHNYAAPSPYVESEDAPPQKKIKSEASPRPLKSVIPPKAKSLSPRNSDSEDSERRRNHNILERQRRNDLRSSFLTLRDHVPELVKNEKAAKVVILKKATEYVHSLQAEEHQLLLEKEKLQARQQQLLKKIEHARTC
Protocol: (§1) For L363 cells (suspension), 1E6 cells were plated into each well of a 6 well plate. For SK-N-BE(2) cells (adherent), 5E5 cells were plated into each well of a 6 well dish. […] All compounds were diluted to 10 mM in DMSO. Cells were treated with the compound for 24 hrs, then for both cell types, media containing cells were removed from wells into a 15 ml centrifuge tube, and remaining adherent SK-N-BE(2) cells were also scraped from the wells into the appropriate tubes. Tubes were centrifuged, cells were washed with PBS then re-centrifuged to pellet cells. A RIPA buffer cocktail was added to the cells on ice for 5 mins. Cell lysates were clarified by centrifugation and stored at −80 degrees until required. BCA assay was performed on each lysate to determine the protein concentration.
(§2) For validation studies of antibodies, lysates and antibodies were used at a number of concentrations (Lysates: 2, 1, 0.2 mg/ml; Antibodies: 1 in 50, 1 in 200 dilution). Once an appropriate lysate concentration and antibody concentration was determined, samples were screened in the JESS technology (Protein Simple, San Jose, CA—https://www.proteinsimple.com/jess.html).
(§3) Target protein antibodies (n-myc and c-myc) were detected in the chemi-luminescence channel and loading controls (tubulin and GAPDH) were detected using a Near Infra Red (NIR) labeled secondary antibody.
(§4) For SK-N-EB2 adherent cells, 5E5 cells in 1.9 mls media were plated into 6 well dishes and incubated for 24 hrs. […] Cells were scrapped off the plate, centrifuged, washed with PBS, centrifuged, then a RIPA buffer cocktail added to the cells (100 ul), centrifuged and stored at −80 for later analysis. For L363 suspension cells, 1E6 cells were plated into […] (950 ul media) and incubated for 24 hrs. […] Cells were aspirated into tubes, centrifuged, washed with PBS, centrifuged, then a RIPA buffer cocktail added to the cells (100 ul), centrifuged and stored at −80 for later analysis.
(§5) For Western blot, a BCA (total protein) assay was run on all samples, these were then run in batches of 5 compounds plus control (DMSO) on each Western blot run—n-myc and c-myc were run in separate experiments in the chemiluminescence channel. Both tubulin and GAPDH were run as loading controls in all lanes in the near infra red channel.

[2] = biological target: T2, MycC protein (c-myc) (Homo sapiens, UniProt P01106); experiment: Degradation of MycC protein, 24 h treatment, JESS Western, L363 cells (Example 161); assay type: cell-based; conditions: L-363 cells
T2 construct: either 2×10^6 of L-363 (human leukemia cell line) cells; endogenous in cells; host or cells: L-363 / L363 human leukemia cells
Protocol: as §1, §2, §3, §4, §5

T2 sequence (P01106 whole entry): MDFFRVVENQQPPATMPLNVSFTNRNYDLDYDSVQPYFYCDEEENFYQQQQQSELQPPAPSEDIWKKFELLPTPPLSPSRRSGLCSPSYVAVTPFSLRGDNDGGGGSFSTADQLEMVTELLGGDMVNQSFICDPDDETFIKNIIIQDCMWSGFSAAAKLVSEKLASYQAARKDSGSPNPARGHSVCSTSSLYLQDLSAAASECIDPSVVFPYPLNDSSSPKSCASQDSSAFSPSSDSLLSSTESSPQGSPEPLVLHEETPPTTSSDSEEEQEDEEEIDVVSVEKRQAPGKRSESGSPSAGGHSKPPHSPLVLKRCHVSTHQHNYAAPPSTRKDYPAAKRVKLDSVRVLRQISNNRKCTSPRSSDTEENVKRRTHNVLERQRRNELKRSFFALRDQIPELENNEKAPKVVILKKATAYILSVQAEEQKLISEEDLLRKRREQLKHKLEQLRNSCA

SMILES	inhibition at 0.5 µM [1]	inhibition at 1 µM [1]	inhibition at 3 µM [1]	inhibition at 6 µM [1]	inhibition at 0.5 µM [2]	inhibition at 1 µM [2]	inhibition at 3 µM [2]	inhibition at 6 µM [2]
CN(c1nccc(Nc2cc(C3CC3)[nH]n2)n1)C1CCN(C2CC2)CC1 [Compound 38, N4-(5-Cyclopropyl-1H-pyrazol-3-yl)-N2-(1-cyclopropylpiperidin-4-yl)-N2-methylpyrimidine-2,4 diamine]	20 to 49%	50 to 79%	80 to 100%	80 to 100%	50 to 79%	80 to 100%	80 to 100%	80 to 100%
CN(c1nccc(Nc2cc(C3CCCC3)[nH]n2)n1)C1CCN(C2CC2)CC1 [Compound 17, N4-(5-Cyclopentyl-1H-pyrazol-3-yl)-N2-(1-cyclopropylpiperidin-4-yl)-N2-methylpyrimidine-2,4-diamine]	< 20%	20 to 49%	80 to 100%	80 to 100%	–	80 to 100%	80 to 100%	80 to 100%
CN(c1nccc(Nc2cc(C3CC3)[nH]n2)n1)C1CC2(C1)CN(C(=O)c1cccc(C(F)(F)F)c1)C2 [Compound 34, (6-((4-((5-Cyclopropyl-1H-pyrazol-3-yl)amino)pyrimidin-2-yl)(methyl)amino)-2 azaspiro[3.3]heptan-2-yl)(3-(trifluoromethyl)phenyl)methanone]	< 20%	< 20%	80 to 100%	80 to 100%	–	–	< 20%	80 to 100%
CN(c1nccc(Nc2cc(C3CC3)[nH]n2)n1)C1CC2(C1)CN(Cc1cc(F)cc(F)c1)C2 [Compound 26, N4-(5-Cyclopropyl-1H-pyrazol-3-yl)-N2-(2-(3,5-difluorobenzyl)-2-azaspiro[3.3]heptan-6-yl)-N2-methylpyrimidine-2,4-diamine]	–	< 20%	–	20 to 49%	–	< 20%	< 20%	80 to 100%
Cc1nnsc1C(=O)N1CC2(CC(N(C)c3nccc(Nc4cc(C5CC5)[nH]n4)n3)C2)C1 [Compound 33, (6-((4-((5-Cyclopropyl-1H-pyrazol-3-yl)amino)pyrimidin-2-yl)(methyl)amino)-2-azaspiro[3.3]heptan-2-yl)(4-methyl-1,2,3-thiadiazol-5-yl)methanone]	–	–	–	80 to 100%	–	–	80 to 100%	80 to 100%
CN(c1nccc(Nc2cc(C3CC3)[nH]n2)n1)C1CC2(C1)CN(CC(=O)Nc1cccc(S(C)(=O)=O)c1)C2 [Compound 23, 2-(6-((4-((5-Cyclopropyl-1H-pyrazol-3-yl)amino)pyrimidin-2-yl)(methyl)amino)-2-azaspiro[3.3]heptan-2-yl)-N-(3-(methylsulfonyl)phenyl)acetamide]	–	–	–	80 to 100%	< 20%	50 to 79%	80 to 100%	80 to 100%
CN(c1nccc(Nc2cc(C3CC3)[nH]n2)n1)C1CC2(C1)CN(S(=O)(=O)c1cnn(C)c1)C2 [Compound 35, N4-(5-Cyclopropyl-1H-pyrazol-3-yl)-N2-methyl-N2-{2-[(1-methyl-1H-pyrazol-4-yl)sulfonyl]-2-azaspiro[3.3]heptan-6-yl}pyrimidine-2,4-diamine]	< 20%	20 to 49%	50 to 79%	80 to 100%	20 to 49%	50 to 79%	80 to 100%	80 to 100%
CN(c1nccc(Nc2cc(C3CC3)[nH]n2)n1)C1CC2(C1)CN(C(=O)c1cn(C)nn1)C2 [Compound 31, (6-((4-((5-Cyclopropyl-1H-pyrazol-3-yl)amino)pyrimidin-2-yl)(methyl)amino)-2-azaspiro[3.3]heptan-2-yl)(1-methyl-1H-1,2,3-triazol-4-yl)methanone]	20 to 49%	50 to 79%	80 to 100%	80 to 100%	–	80 to 100%	80 to 100%	80 to 100%
CN(c1nccc(Nc2cc(C3CC3)[nH]n2)n1)C1CC2(C1)CN(C(=O)C1CCOCC1)C2 [Compound 32, (6-((4-((5-Cyclopropyl-1H-pyrazol-3-yl)amino)pyrimidin-2-yl)(methyl)amino)-2 azaspiro[3.3]heptan-2-yl)(tetrahydro-2H-pyran-4-yl)methanone]	–	–	80 to 100%	80 to 100%	–	–	80 to 100%	80 to 100%
CN(c1nccc(Nc2cc(C3CC3)[nH]n2)n1)C1CC2(C1)CN(Cc1ccccc1F)C2 [Compound 25, N4-(5-Cyclopropyl-1H-pyrazol-3-yl)-N2-(2-(2-fluorobenzyl)-2-azaspiro[3.3]heptan-6-yl)-N2-methylpyrimidine-2,4-diamine]	–	–	< 20%	< 20%	20 to 49%	20 to 49%	–	–
CN(c1nccc(Nc2cc(C3CC3)[nH]n2)n1)C1CC2(C1)CN(Cc1cccc(S(C)(=O)=O)c1)C2 [Compound 28, N4-(5-Cyclopropyl-1H-pyrazol-3-yl)-N2-methyl-N2-(2-(3-(methylsulfonyl)benzyl)-2-azaspiro[3.3]heptan-6-yl)pyrimidine-2,4-diamine]	–	–	–	20 to 49%	–	–	80 to 100%	80 to 100%
CN(c1nccc(Nc2cc(C3CC3)[nH]n2)n1)C1CC2(C1)CN(CC1CC1)C2 [Compound 21, N4-(5-Cyclopropyl-1H-pyrazol-3-yl)-N2-(2-(cyclopropylmethyl)-2-azaspiro[3.3]heptan-6-yl)-N2-methylpyrimidine-2,4-diamine]	< 20%	20 to 49%	20 to 49%	50 to 79%	–	< 20%	50 to 79%	80 to 100%
CN(c1nccc(Nc2cc(C3CC3)[nH]n2)n1)C1CCN(Cc2cccc(S(C)(=O)=O)c2)CC1 [Compound 39, N4-(5-Cyclopropyl-1H-pyrazol-3-yl)-N2-methyl-N2-(1-(3-(methylsulfonyl)benzyl)piperidin-4-yl)pyrimidine-2,4-diamine]	–	–	80 to 100%	80 to 100%	–	50 to 79%	80 to 100%	80 to 100%
CN1CC2(CC(Nc3nccc(Nc4cc(C5CC5)[nH]n4)n3)C2)C1 [Compound 16, N4-(5-Cyclopropyl-1H-pyrazol-3-yl)-N2-(2-methyl-2-azaspiro[3.3]heptan-6-yl)pyrimidine-2,4-diamine]	20 to 49%	20 to 49%	80 to 100%	80 to 100%	50 to 79%	80 to 100%	80 to 100%	80 to 100%
CN(c1nccc(Nc2cc(C3CC3)[nH]n2)n1)C1CCN(Cc2cc(F)cc(F)c2)CC1 [Compound 40, N4-(5-Cyclopropyl-1H-pyrazol-3-yl)-N2-(1-(3,5-difluorobenzyl)piperidin-4-yl)-N2-methylpyrimidine-2,4-diamine]	< 20%	20 to 49%	80 to 100%	80 to 100%	< 20%	80 to 100%	80 to 100%	80 to 100%
CN1CCC(Nc2nccc(Nc3cc(C4CC4)[nH]n3)n2)CC1 [Compound 37, N4-(5-Cyclopropyl-1H-pyrazol-3-yl)-N2-(1-methylpiperidin-4-yl)pyrimidine-2,4-diamine]	–	< 20%	20 to 49%	50 to 79%	–	–	< 20%	80 to 100%
